Test results from PubChem BioAssay (NCI).
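How tested: cells in 96-well plates exposed to compound for 48 hours at five concentrations. GI50 = concentration required for 50% inhibition of growth. TGI denotes the concentration required for complete inhibition of growth.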

Tests used:
Assay in all cases: NCI-60 cell line screen, 48 h
MDA-MB-231 breast = tested on: MDA-MB-231 breast
A549 NSCLC = tested on: A549 NSCLC
HS 578T breast = tested on: HS 578T breast
A498 renal = tested on: A498 renal
HCT-15 colon = tested on: HCT-15 colon
NCI-H226 lung = tested on: NCI-H226 lung
KM12 colon = tested on: KM12 colon
SF-539 CNS = tested on: SF-539 CNS
DU-145 prostate = tested on: DU-145 prostate
ACHN renal = tested on: ACHN renal

Compound	GI50 (MDA-MB-231 breast) [µM]	TGI (MDA-MB-231 breast) [µM]	GI50 (A549 NSCLC) [µM]	TGI (A549 NSCLC) [µM]	GI50 (HS 578T breast) [µM]	TGI (HS 578T breast) [µM]	GI50 (A498 renal) [µM]	TGI (A498 renal) [µM]	GI50 (HCT-15 colon) [µM]	TGI (HCT-15 colon) [µM]	GI50 (NCI-H226 lung) [µM]	TGI (NCI-H226 lung) [µM]	GI50 (KM12 colon) [µM]	TGI (KM12 colon) [µM]	GI50 (SF-539 CNS) [µM]	TGI (SF-539 CNS) [µM]	GI50 (DU-145 prostate) [µM]	TGI (DU-145 prostate) [µM]	GI50 (ACHN renal) [µM]	TGI (ACHN renal) [µM]
Clc1cc(Cl)c(Cl)c(-c2nc(-c3cccnc3)cs2)c1	53	> 100	24.8	> 100	18.6	55.5	53.9	> 100	16	42.5	27.4	85.8	51.4	> 100	10.7	25.4	2.55	96.2	22.2	72.3
O=C(O)CC(Nc1ccccc1)C(=O)O (centres undefined)		> 100		> 100		> 100		> 100		> 100		> 100		> 100		> 100		> 100		> 100
C#CCN=C(N/N=C/c1ccc([N+](=O)[O-])o1)NS(=O)(=O)c1cc(C)c(Cl)cc1SCC(N)=O	11.4	26.4	18	35.3	19.8	49.5	17.1	32.7	22.1	56.4	20.1	40.5	18.8	38.9	17.3	31.7	11.6	24.5	16.7	36.8
CN(C)CCCN(c1nc(C(Cl)(Cl)Cl)ns1)c1nc(C(Cl)(Cl)Cl)ns1	1.19	2.6	1.63	3.78	1.72	4.46	1.92	4.89	1.88	4.08	1.72	3.42	1.8	3.44	1.91	3.8	2.75	6.79	1.77	3.53
CNNCc1ccc(C(=O)NC(C)C)cc1		> 500	> 500	> 500		> 500		> 500	> 500	> 500	> 500	> 500		> 500		> 500		> 500		> 500
C/C(CC(=O)NNc1ccc([N+](=O)[O-])cc1)=N\Nc1ccc([N+](=O)[O-])cc1	2.12	19.7	5.42	> 100	17.4	> 100	7.84	47.2	19.7	> 100	17.9	> 100	2.12	> 100	5.97	> 100	17.4	89.9	5.45	> 100
COc1ccc2c(c1)CCc1c(-c3noc4c3CCc3cc(OC)ccc3-4)noc1-2		> 100		> 100		> 100		> 100		> 100		> 100		> 100		> 100		> 100		> 100
CCCc1cc2cc(-n3nc(C)c4c3CC(C)(C)CC4=O)cc(NC3CCC(O)CC3)c2c(=O)[nH]1 (centres undefined)	0.192	3.76	0.215	> 100	0.989	> 100	0.437	> 100	0.167	> 100	5.36	> 100	0.0986	> 100	0.782	> 100	0.0527	> 100	0.0712	> 100
O=C(O)C1NCCc2c1[nH]c1ccccc21 (centres undefined)		> 10	> 100	> 100		> 10	> 100	> 100	> 100	> 100		> 100	> 100	> 100	> 100	> 100		> 10	> 100	> 100
